Assay results reported in patent US20230073777A1, “CYCLIC-AMP RESPONSE ELEMENT BINDING PROTEIN (CBP) AND/OR ADENOVIRAL E1A BINDING PROTEIN OF 300 KDA (P300) DEGRADATION COMPOUNDS AND METHODS OF USE” (CULLGEN (SHANGHAI), INC., priority 2019, published 2023).
Read-outs that look alike come from different tables or passages of the source.

Assays:
P300 = P300 (Homo sapiens, UniProt Q09472); test: Immunoblotting of P300 protein levels in LNCaP or 22RV1 cells; type: cell-based; set-up: LNCaP or 22RV1 cells that express CBP/P300 proteins were treated with GNE-781 or the bivalent compounds; endogenous in cells; host or cells: LNCaP (clone FGC) or 22RV1 cells; conditions: read-out: Degradation (10 nM)
Description: Specific exemplary bivalent compounds were characterized in LNCaP or 22RV1 cells. LNCaP or 22RV1 cells that express CBP/P300 proteins were treated with GNE-781 or the bivalent compounds disclosed herein (P-001 to P-174) for indicated hours. Cells were collected, lysed and subject to immunoblotting using an antibody specific to P300 or CBP proteins. Tubulin or vinculin was included as the loading control. DMSO was used as the negative control.
Cultured cells or tissue chunks were washed with cold PBS once and lysed in cold RIPA buffer supplemented with protease inhibitors and phosphatase inhibitors (Beyotime Biotechnology). The solutions were then incubated at 4° C. for 30 minutes with gentle agitation to fully lyse cells. Cell lysates were centrifuged at 13,000 rpm for 10 minutes at 4° C. and pellets were discarded. Total protein concentrations in the lysates were determined by BCA assays (Beyotime Biotechnology). Cell lysates were mixed with Laemmli loading buffer to 1× and heated at 99° C. for 5 min. Proteins were resolved on SDS-PAGE and visualized by chemiluminescence. Images were taken by a ChemiDoc MP Imaging system (Bio-Rad). Protein bands were quantitated using the accompanied software provided by Bio-Rad.

LNCaP cells = test: LNCaP cell viability assay (CellTiter-Glo); type: cell-based; conditions: Homo sapiens, 72 h, LNCaP prostate cancer cell viability inhibition, 3 days
In short: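 LNCaP cells, 5000/well, exposed to compounds in 12-point 3-fold serial dilution (top 10 μM) for 3 days. Viability by CellTiter-Glo luminescence, normalized to untreated cells; IC50 by least-squares nonlinear regression.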

[1] = percentage of inhibition of p300 at 10 nM (Table 3)

P300, sequence (Q09472 whole entry): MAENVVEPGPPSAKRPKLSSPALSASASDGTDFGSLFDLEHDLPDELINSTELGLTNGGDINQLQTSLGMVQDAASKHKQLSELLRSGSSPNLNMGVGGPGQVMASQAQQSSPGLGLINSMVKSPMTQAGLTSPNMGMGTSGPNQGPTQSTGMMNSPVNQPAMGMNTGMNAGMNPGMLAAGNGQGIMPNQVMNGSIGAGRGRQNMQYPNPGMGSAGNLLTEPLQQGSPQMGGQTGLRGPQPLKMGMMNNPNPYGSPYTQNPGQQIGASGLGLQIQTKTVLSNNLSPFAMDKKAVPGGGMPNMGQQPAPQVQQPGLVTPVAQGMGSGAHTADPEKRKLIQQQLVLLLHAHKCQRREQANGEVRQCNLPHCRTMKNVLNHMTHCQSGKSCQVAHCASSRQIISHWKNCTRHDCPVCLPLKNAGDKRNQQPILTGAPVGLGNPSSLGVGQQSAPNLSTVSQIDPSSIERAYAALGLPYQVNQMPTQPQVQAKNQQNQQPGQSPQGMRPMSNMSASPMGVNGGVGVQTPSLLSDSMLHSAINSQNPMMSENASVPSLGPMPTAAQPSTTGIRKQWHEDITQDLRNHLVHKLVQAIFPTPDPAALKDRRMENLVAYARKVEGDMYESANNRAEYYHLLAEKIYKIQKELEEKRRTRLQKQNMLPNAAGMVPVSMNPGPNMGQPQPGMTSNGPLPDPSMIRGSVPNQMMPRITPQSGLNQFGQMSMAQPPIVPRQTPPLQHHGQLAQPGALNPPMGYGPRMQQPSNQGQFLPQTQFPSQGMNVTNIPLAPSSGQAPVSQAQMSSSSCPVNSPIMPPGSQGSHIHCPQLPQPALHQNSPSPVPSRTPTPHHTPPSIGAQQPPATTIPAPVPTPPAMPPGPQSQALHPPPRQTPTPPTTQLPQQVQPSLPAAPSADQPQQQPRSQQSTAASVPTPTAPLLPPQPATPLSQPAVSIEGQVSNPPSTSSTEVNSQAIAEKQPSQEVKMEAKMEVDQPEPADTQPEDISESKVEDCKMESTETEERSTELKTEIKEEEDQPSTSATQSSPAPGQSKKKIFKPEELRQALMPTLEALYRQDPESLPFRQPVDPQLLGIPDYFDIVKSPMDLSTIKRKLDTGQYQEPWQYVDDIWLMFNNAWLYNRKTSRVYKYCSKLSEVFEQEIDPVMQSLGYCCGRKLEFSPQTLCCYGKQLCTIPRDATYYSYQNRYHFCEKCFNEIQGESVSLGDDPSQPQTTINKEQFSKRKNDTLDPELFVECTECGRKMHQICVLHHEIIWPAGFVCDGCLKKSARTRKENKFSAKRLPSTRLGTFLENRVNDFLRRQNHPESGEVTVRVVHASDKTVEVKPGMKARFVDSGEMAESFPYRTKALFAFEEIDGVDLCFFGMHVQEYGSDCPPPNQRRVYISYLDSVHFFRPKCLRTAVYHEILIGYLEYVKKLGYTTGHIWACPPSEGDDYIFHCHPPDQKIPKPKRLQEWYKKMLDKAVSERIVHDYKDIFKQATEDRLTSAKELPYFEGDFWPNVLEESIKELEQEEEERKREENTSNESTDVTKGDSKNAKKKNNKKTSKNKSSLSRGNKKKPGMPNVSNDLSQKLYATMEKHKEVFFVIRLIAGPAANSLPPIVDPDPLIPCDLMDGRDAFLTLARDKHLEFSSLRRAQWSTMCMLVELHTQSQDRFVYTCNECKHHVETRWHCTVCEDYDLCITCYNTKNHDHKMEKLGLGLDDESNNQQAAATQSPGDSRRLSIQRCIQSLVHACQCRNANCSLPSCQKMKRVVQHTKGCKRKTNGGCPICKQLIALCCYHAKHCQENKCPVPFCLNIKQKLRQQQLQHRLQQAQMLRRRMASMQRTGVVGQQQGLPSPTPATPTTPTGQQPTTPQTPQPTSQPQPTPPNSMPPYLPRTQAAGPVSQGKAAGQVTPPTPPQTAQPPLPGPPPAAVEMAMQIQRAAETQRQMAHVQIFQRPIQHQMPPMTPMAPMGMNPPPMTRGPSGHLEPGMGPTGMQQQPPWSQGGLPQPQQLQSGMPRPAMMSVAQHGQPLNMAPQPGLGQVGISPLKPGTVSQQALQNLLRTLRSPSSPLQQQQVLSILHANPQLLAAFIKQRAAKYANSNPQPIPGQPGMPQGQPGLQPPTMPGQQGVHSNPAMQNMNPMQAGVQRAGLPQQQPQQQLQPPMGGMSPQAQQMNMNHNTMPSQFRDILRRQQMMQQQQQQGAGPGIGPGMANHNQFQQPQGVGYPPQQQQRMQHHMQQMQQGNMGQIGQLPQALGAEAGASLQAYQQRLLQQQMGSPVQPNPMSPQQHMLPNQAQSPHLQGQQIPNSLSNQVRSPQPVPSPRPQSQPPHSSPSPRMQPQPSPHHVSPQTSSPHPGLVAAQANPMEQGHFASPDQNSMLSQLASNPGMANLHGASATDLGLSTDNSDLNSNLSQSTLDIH

Compound	inhibition at 0.01 µM (P300; [1]) [%]	IC50 (LNCaP cells; CellTiter-Glo (Table 3)) [nM]	inhibition at 0.01 µM (P300; percentage of inhibition of p300 at 10 nM (Table 2)) [%]	IC50 (LNCaP cells; CellTiter-Glo (Table 2)) [nM]	inhibition at 0.01 µM (P300) [%]
CC(=O)N1CCc2c(c(N3CCCc4cc(-c5cnn(C)c5)c(C(F)F)cc43)nn2C2CCN(C(=O)CCCCCCNc3cccc4c3n(C)c(=O)n4C3CCC(=O)NC3=O)CC2)C1 (stereo not shown) [P-111, 3-(4-((7-(4-(5-acetyl-3-(7-(difluoromethyl)-6-(1-methyl-1H-pyrazol-4-yl)-3,4-dihydroquinolin-1(2H)-yl)-4,5,6,7-tetrahydro-1H-pyrazolo[4,3-c]pyridin-1-yl)piperidin-1-yl)-7-oxoheptyl)amino)-3-methyl-2-oxo-2,3-dihydro-1H-benzo[d]imidazol-1-yl)piperidine-2,6-dione]	> 80	7.6	–	–	–
CNC(=O)N1CCc2c(c(N3CCCc4cc(-c5cnn(C)c5)c(C(F)F)cc43)nn2C2CCN(C(=O)CCCCCNc3cccc4c3n(C)c(=O)n4C3CCC(=O)NC3=O)CC2)C1 (stereo not shown) [P-109, 3-(7-(difluoromethyl)-6-(1-methyl-1H-pyrazol-4-yl)-3,4-dihydroquinolin-1(2H)-yl)-1-(1-(6-((1-(2,6-dioxopiperidin-3-yl)-3-methyl-2-oxo-2,3-dihydro-1H-benzo[d]imidazol-4-yl)amino)hexanoyl)piperidin-4-yl)-N-methyl-1,4,6,7-tetrahydro-5H-pyrazolo[4,3-c]pyridine-5-carboxamide]	> 80	12.9	–	–	–
CNC(=O)N1CCc2c(c(N3CCCc4cc(-c5cnn(CC(=O)NCC(=O)N[C@H](C(=O)N6C[C@H](O)C[C@H]6C(=O)NCc6ccc(-c7scnc7C)cc6)C(C)(C)C)c5)c(C(F)F)cc43)nn2C2CCOCC2)C1 [P-044]	–	–	< 20	> 10000	–
CC(=O)N1CCc2c(c(N3CCCc4cc(-c5cnn(C)c5)c(C(F)F)cc43)nn2C2CCN(C(=O)CN3CCC(CNc4cccc5c4C(=O)N(C4CCC(=O)NC4=O)C5=O)CC3)CC2)C1 (stereo not shown) [P-123, 4-(((1-(2-(4-(5-Acetyl-3-(7-(difluoromethyl)-6-(1-methyl-1H-pyrazol-4-yl)-3,4-dihydroquinolin-1(2H)-yl)-4,5,6,7-tetrahydro-1H-pyrazolo[4,3-c]pyridin-1-yl)piperidin-1-yl)-2-oxoethyl)piperidin-4-yl)methyl)amino)-2-(2,6-dioxopiperidin-3-yl)isoindoline-1,3-dione]	> 80	20.3	–	–	–
CC(=O)N1CCc2c(c(N3CCCc4cc(-c5cnn(C)c5)c(C(F)F)cc43)nn2C2CCN(C(=O)CN3CCC(CCc4cccc5c4C(=O)N(C4CCC(=O)NC4=O)C5=O)CC3)CC2)C1 (stereo not shown) [P-131, 4-(2-(1-(2-(4-(5-acetyl-3-(7-(difluoromethyl)-6-(1-methyl-1H-pyrazol-4-yl)-3,4-dihydroquinolin-1(2H)-yl)-4,5,6,7-tetrahydro-1H-pyrazolo[4,3-c]pyridin-1-yl)piperidin-1-yl)-2-oxoethyl)piperidin-4-yl)ethyl)-2-(2,6-dioxopiperidin-3-yl)isoindoline-1,3-dione]	> 80	14	–	–	–
CC(=O)N1CCc2c(c(N3CCCc4cc(-c5cnn(C)c5)c(C(F)F)cc43)nn2C2CCN(C(=O)CCCCCNc3ccc4c(c3)C(=O)N(C3CCC(=O)NC3=O)C4=O)CC2)C1 (stereo not shown) [P-120, 5-((6-(4-(5-acetyl-3-(7-(difluoromethyl)-6-(1-methyl-1H-pyrazol-4-yl)-3,4-dihydroquinolin-1(2H)-yl)-4,5,6,7-tetrahydro-1H-pyrazolo[4,3-c]pyridin-1-yl)piperidin-1-yl)-6-oxohexyl)amino)-2-(2,6-dioxopiperidin-3-yl)isoindoline-1,3-dione]	> 80	9.4	–	–	–
CNC(=O)N1CCc2c(c(N3CCCc4cc(-c5cnn(C)c5)c(C(F)F)cc43)nn2C2CCN(C(=O)CCCCCNc3ccc4c(c3)n(C)c(=O)n4C3CCC(=O)NC3=O)CC2)C1 (stereo not shown) [P-115, 3-(7-(difluoromethyl)-6-(1-methyl-1H-pyrazol-4-yl)-3,4-dihydroquinolin-1(2H)-yl)-1-(1-(6-((1-(2,6-dioxopiperidin-3-yl)-3-methyl-2-oxo-2,3-dihydro-1H-benzo[d]imidazol-5-yl)amino)hexanoyl)piperidin-4-yl)-N-methyl-1,4,6,7-tetrahydro-5H-pyrazolo[4,3-c]pyridine-5-carboxamide]	> 80	7.1	–	–	–
CC(=O)N1CCc2c(c(N3CCCc4cc(-c5cnn(C)c5)c(C(F)F)cc43)nn2C2CCN(C(=O)CCCCCCCCNc3ccc4c(c3)n(C)c(=O)n4C3CCC(=O)NC3=O)CC2)C1 (stereo not shown) [P-162, 3-(5-((9-(4-(5-acetyl-3-(7-(difluoromethyl)-6-(1-methyl-1H-pyrazol-4-yl)-3,4-dihydroquinolin-1(2H)-yl)-4,5,6,7-tetrahydro-1H-pyrazolo[4,3-c]pyridin-1-yl)piperidin-1-yl)-9-oxononyl)amino)-3-methyl-2-oxo-2,3-dihydro-1H-benzo[d]imidazol-1-yl)piperidine-2,6-dione]	> 80	0.3	–	–	–
CC(=O)N1CCc2c(c(N3CCCc4cc(-c5cnn(C)c5)c(C(F)F)cc43)nn2C2CCN(C(=O)CCCCCCCn3c(=O)n(C4CCC(=O)NC4=O)c4ccccc43)CC2)C1 (stereo not shown) [P-135, 3-(3-(8-(4-(5-acetyl-3-(7-(difluoromethyl)-6-(1-methyl-1H-pyrazol-4-yl)-3,4-dihydroquinolin-1(2H)-yl)-4,5,6,7-tetrahydro-1H-pyrazolo[4,3-c]pyridin-1-yl)piperidin-1-yl)-8-oxooctyl)-2-oxo-2,3-dihydro-1H-benzo[d]imidazol-1-yl)piperidine-2,6-dione]	–	0.7	–	–	> 80

The remaining molecules from weak to strong by IC50 (LNCaP cells; CellTiter-Glo (Table 3)), led by results:

inhibition at 0.01 µM (P300; [1]) [%]	IC50 (LNCaP cells; CellTiter-Glo (Table 3)) [nM]	inhibition at 0.01 µM (P300; percentage of inhibition of p300 at 10 nM (Table 2)) [%]	IC50 (LNCaP cells; CellTiter-Glo (Table 2)) [nM]	Compound	inhibition at 0.01 µM (P300) [%]
50 to 80	44.5	–	–	CNC(=O)N1CCc2c(c(N3CCCc4cc(-c5cnn(C)c5)c(C(F)F)cc43)nn2C2CCN(C(=O)CCCCCn3c(=O)n(C4CCC(=O)NC4=O)c4ccccc43)CC2)C1 (stereo not shown) [P-105, 3-(7-(Difluoromethyl)-6-(1-methyl-1H-pyrazol-4-yl)-3,4-dihydroquinolin-1(2H)-yl)-1-(1-(6-(3-(2,6-dioxopiperidin-3-yl)-2-oxo-2,3-dihydro-1H-benzo[d]imidazol-1-yl)hexanoyl)piperidin-4-yl)-N-methyl-1,4,6,7-tetrahydro-5H-pyrazolo[4,3-c]pyridine-5-carboxamide]	–
20 to 50	35	–	–	CNC(=O)N1CCc2c(c(N3CCCc4cc(-c5cnn(C)c5)c(C(F)F)cc43)nn2C2CCN(C(=O)CCCCCCCCC(=O)N[C@H](C(=O)N3C[C@H](O)C[C@H]3C(=O)NCc3ccc(-c4scnc4C)cc3)C(C)(C)C)CC2)C1 [P-062, 3-(7-(Difluoromethyl)-6-(1-methyl-1H-pyrazol-4-yl)-3,4-dihydroquinolin-1(2H)-yl)-1-(1-(10-(((S)-1-((2S,4R)-4-hydroxy-2-((4-(4-methylthiazol-5-yl)benzyl)carbamoyl)pyrrolidin-1-yl)-3,3-dimethyl-1-oxobutan-2-yl)amino)-10-oxodecanoyl)piperidin-4-yl)-N-methyl-1,4,6,7-tetrahydro-5H-pyrazolo[4,3-c]pyridine-5-carboxamide]	–
< 20	30.8	–	–	CNC(=O)N1CCc2c(c(N3CCCc4cc(-c5cnn(C)c5)c(C(F)F)cc43)nn2C2CCN(C(=O)COCCOCCOCC(=O)N[C@H](C(=O)N3C[C@H](O)C[C@H]3C(=O)NCc3ccc(-c4scnc4C)cc3)C(C)(C)C)CC2)C1 [P-068, 3-(7-(Difluoromethyl)-6-(1-methyl-1H-pyrazol-4-yl)-3,4-dihydroquinolin-1(2H)-yl)-1-(1-((S)-13-((2S,4R)-4-hydroxy-2-((4-(4-methylthiazol-5-yl)benzyl)carbamoyl)pyrrolidine-1-carbonyl)-14,14-dimethyl-11-oxo-3,6,9-trioxa-12-azapentadecanoyl)piperidin-4-yl)-N-methyl-1,4,6,7-tetrahydro-5H-pyrazolo[4,3-c]pyridine-5-carboxamide]	–
> 80	1.7	–	–	CC(=O)N1CCc2c(c(N3CCCc4cc(-c5cnn(C)c5)c(C(F)F)cc43)nn2C2CCN(C(=O)CCCCCCCNc3ccc4c(c3)C(=O)N(C3CCC(=O)NC3=O)C4=O)CC2)C1 (stereo not shown) [P-119, 5-((8-(4-(5-acetyl-3-(7-(difluoromethyl)-6-(1-methyl-1H-pyrazol-4-yl)-3,4-dihydroquinolin-1(2H)-yl)-4,5,6,7-tetrahydro-1H-pyrazolo[4,3-c]pyridin-1-yl)piperidin-1-yl)-8-oxooctyl)amino)-2-(2,6-dioxopiperidin-3-yl)isoindoline-1,3-dione]	–
> 80	0.3	–	–	CC(=O)N1CCc2c(c(N3CCCc4cc(-c5cnn(C)c5)c(C(F)F)cc43)nn2C2CCN(CCN3CCOC(CNc4cccc5c4C(=O)N(C4CCC(=O)NC4=O)C5=O)C3)CC2)C1 (stereo not shown) [P-142]	–
